In US9636348B2, “6-substituted estradiol derivatives for use in remyelination of nerve axons” (Endece LLC, priority 2011, dated 2017):

What was measured:
[1] = system: genes in signaling pathways involved in proliferation and differentiation of OPCs; assay: Expression profiling in tumor cell lines: overall statement; assay type: cell-based, human; settings: SKOV-3, A549 and Panc-1 cells, Table 1
Method: (§1) The study includes three human tumor cell lines: A549, Panc-1, and SK-OV-3. The lines are each grown in two flasks cultured to roughly 40% confluence. One of the flasks is treated by addition of compound to the culture media at a various concentrations, i.e. 10 μM, 20 μM 50 μM, 100 μM or 200 μM. The other, mock treated, flask is treated only with the vehicle used to solubilize and deliver the drug. RNA extracted from the pairs of treated and untreated samples is subjected to microarray analysis on Agilent Whole Human Genome Microarrays (G4112F). Each analysis reports the difference in abundance of messenger RNAs for each of the 41,000 specific mRNA detectors on the array. This direct comparison of the treated versus untreated samples for each cell line provides extremely sensitive detection of changes in mRNA abundance resulting from the drug treatment. As each cell line comparison is self-normalized, the results can be compared across the samples with high confidence.
Three human tumor cell lines, A549, Panc-1, and SK-OV-3, are each grown in two flasks cultured to roughly 40% confluence. […]
(§2) After the ratios have been calculated for the normalized data, the various control and duplicate samples are analyzed to build a model of how reproducible the results are, and how this reproducibility is varies depending on signal strength and noise. […]

Interleukin 28A (IL28A) = assay: Expression profiling (Agilent microarray) in tumor cell lines: IL28A; assay type: cell-based, human; settings: 24 hours, treated vs untreated, average of SKOV-3, A549 and Panc-1
Method: as §1
(§3) Three human tumor cell lines, A549, Panc-1, and SK-OV-3, are each grown in two flasks cultured to roughly 40% confluence. One of the flasks is treated by addition of compound to the culture media at concentrations of 10 μM, 50 μM and 100 μM. The other, mock treated, flask is treated only with the vehicle used to solubilize and deliver the drug. All flasks are cultured for a further 24 hours, and then the cells are scraped free and washed in ice-cold PBS, then collected by centrifugation. The harvested cells are immediately frozen, and stored at −80° C. or colder.
(§4) Total RNA is prepared from the frozen tissue samples using Trizol-based cell lysis followed by 65° C. hot phenol extraction and RNeasy chromatography purification. The purified RNA samples are analyzed spectrophotometrically. The concentration of RNA is determined by measuring the absorbance at 260 nm (A260). Given an absorbance of 1 unit at 260 nm corresponds to […].
(§5) All RNAs are labeled using 1 microgram of RNA as input to an Agilent Low Input Labeling reaction.
(§6) Test RNA is labeled with Cy5 (650 nm emitter) and reference RNA is labeled with Cy3 (550 nm emitter) nucleotides. Labeling, hybridizations and subsequent washings are carried out on Agilent H1Av2 human expression chips. The resulting hybridized chips are scanned on an Agilent microarray scanner, and intensity information for each detector spot is extracted from the scanned image using Agilent feature extraction software. […]
as §2

[2] = system: Interleukin 20 receptor alpha (IL20RA); assay: Expression profiling (Agilent microarray) in tumor cell lines: IL20RA; assay type: cell-based, human; settings: 24 hours, treated vs untreated, average of SKOV-3, A549 and Panc-1
Method: as §1, §3, §4, §5, §6, §2

[3] = system: Interleukin 23 receptor (IL23R); assay: Expression profiling (Agilent microarray) in tumor cell lines: IL23R; assay type: cell-based, human; settings: 24 hours, treated vs untreated, average of SKOV-3, A549 and Panc-1
Method: as §1, §3, §4, §5, §6, §2

Connexin (AF251047) = assay: Expression profiling (Agilent microarray) in tumor cell lines: Connexin; assay type: cell-based, human; settings: 24 hours, treated vs untreated, average of SKOV-3, A549 and Panc-1
Method: as §1, §3, §4, §5, §6, §2

[4] = system: oligodendrocyte precursor cells (OPCs); assay: Oligodendrocyte differentiation assay (PLP-EGFP reporter); assay type: cell-based, mouse; settings: for Potency in OPC differentiation (in words): 4 days, FIGS. 1 and 3
Method: OPC cultures are prepared as described Pedraza, C. E. et al., Glia 56(12), 1339-52 (2008), incorporated herein by reference. Brains are removed from E14.5 C57Bl6/J (expressing PLP-EGFP) mice (Mallon, B. S. et al., J. Neurosci 22(3), 876-85 (2002)), cleaned and cortical hemispheres are isolated. Tissue is then triturated and seeded in T-25 cm^2 flasks at a density of 1 brain (2 cortical hemispheres) per flask. Neurospheres are passaged once after 3 days. Cells from passage 2 are used to prepare two 96-well plates for the primary screen. Following the initial 48 hour incubation in OPC media, the OPCs are treated with 10 μM of 17β-estradiol, compound 4 and compound 21, along with vehicle control DMSO and positive control compounds including […] ciliary neurotrophic factor (CNTF) and 1 μM extracellular-signal-regulated (ERK) kinase inhibitor (MEKi). Cells are treated for a total of 4 days and the media is replaced once at the 48 hour mark with fresh compounds. After the 4 day treatment the cells are fixed with 4% paraformaldehyde and stained with Hoechst 33342 to visualize nuclei. Cells are also stained with anti-GFAP (GFAP=glial fibrillary acidic protein) antibodies to identify astrocytes. Cells are blocked with 3% normal goat serum followed by an overnight incubation of anti-rabbit GFAP antibody (1:500). Cells are labeled with a 1:1000 concentration of secondary goat anti-rabbit Alexa 647 fluorochrome antibody. Images are acquired using the Cellomics Arrayscan VTI. Twenty fields at 10× magnification are acquired per well and the cells expressing EGFP (enhanced green gluorescent protein; mature oligodendrocytes) and GFAP (astrocytes) are evaluated by neuronal profiling algorithm.
The extent of oligodendrocyte maturation is measured by the level of the PLP-EGFP reporter signal, along with the extent of process formation (FIGS. 1-4; legend for FIGS. 1 and 3 are presented below in Table 2). Proteolipid protein (PLP) is used as a biomarker because it is known to be expressed in mature oligodendrocytes and is a component of the myelin sheath. […] Compared to DMSO and all other compounds tested, including CNTF, the extent of process formation is also greatest for compound 21 (FIGS. 2 and 4).

[5] = system: Delta/notch-like EFG repeat (DNER); assay: Expression profiling (Agilent microarray) in tumor cell lines: DNER; assay type: cell-based, human; settings: 24 hours, treated vs untreated, average of SKOV-3, A549 and Panc-1
Method: as §1, §3, §4, §5, §6, §2

[6] = system: Transmembrane protein 108 (TMEM108); assay: Expression profiling (Agilent microarray) in tumor cell lines: TMEM108; assay type: cell-based, human; settings: 24 hours, treated vs untreated, average of SKOV-3, A549 and Panc-1
Method: as §1, §3, §4, §5, §6, §2

[7] = system: Myelin oligodentrocyte glycoprotein (variant alpha 4) (MOG); assay: Expression profiling (Agilent microarray) in tumor cell lines: MOG; assay type: cell-based, human; settings: 24 hours, treated vs untreated, average of SKOV-3, A549 and Panc-1
Method: as §1, §3, §4, §5, §6, §2

[8] = system: Oligodentrocyte lineage transcription factor 2 (OLIG2); assay: Expression profiling (Agilent microarray) in tumor cell lines: OLIG2; assay type: cell-based, human; settings: 24 hours, treated vs untreated, average of SKOV-3, A549 and Panc-1
Method: as §1, §3, §4, §5, §6, §2

[9] = system: Myelin basic protein (variant 7) (MBP); assay: Expression profiling (Agilent microarray) in tumor cell lines: MBP; assay type: cell-based, human; settings: 24 hours, treated vs untreated, average of SKOV-3, A549 and Panc-1
Method: as §1, §3, §4, §5, §6, §2

Compound	Effect on genes in signaling pathways involved in proliferation and differentiation of OPCs [1]	Gene expression IL28A (Interleukin 28A (IL28A); 50 μM) [log2]	Gene expression IL20RA ([2]; 50 μM) [log2]	Gene expression IL23R ([3]; 50 μM) [log2]	Gene expression Connexin AF251047 (Connexin (AF251047); 50 μM) [log2]	Potency in OPC differentiation (in words) ([4]; 10 μM)	Gene expression DNER ([5]; 50 μM) [log2]	Gene expression TMEM108 ([6]; 50 μM) [log2]	Gene expression MOG ([7]; 50 μM) [log2]	Gene expression OLIG2 ([8]; 50 μM) [log2]	Gene expression MBP ([9]; 50 μM) [log2]	also measured
COCCCCCC[C@@H]1C[C@@H]2[C@H](CC[C@]3(C)C(O)CC[C@@H]23)c2ccc(O)cc21 (stereo partly drawn) [compound 21, (6R,8R,9S,13S,14S)-6-(6-methoxyhexyl)-13-methyl-7,8,9,11,12,13,14,15,16,17-decahydro-6H-cyclopenta[a]phenanthrene-3,17-diol]	up-regulate	2.59	4.39	5.46	3.08	potent	4.79	3.96	5.55	5.32	5.04	Gene expression IL28A (Interleukin 28A (IL28A); 10 μM): 1.44 log2; Gene expression IL20RA ([2]; 10 μM): 4.42 log2; Gene expression IL23R ([3]; 10 μM): 5.31 log2; Gene expression Connexin AF251047 (Connexin (AF251047); 10 μM): 2.74 log2; Activity to differentiate oligodendrocytes compared to DMSO ([4]; 10 μM, 4 days (96 hours), mouse OPC culture, PLP-EGFP signal): 3 fold; Activity to differentiate oligodendrocytes compared to positive control CNTF ([4]; 10 μM, 4 days (96 hours), mouse OPC culture, CNTF 10 μM): 1.5 fold; Activity to differentiate oligodendrocytes compared to positive control MEKi ([4]; 10 μM, 4 days (96 hours), mouse OPC culture, MEKi 1 μM): 2.0 fold; Extent of process formation ([4]; compared to DMSO and all other compounds tested, including CNTF, FIGS. 2 and 4): greatest; Gene expression DNER ([5]; 10 μM): 6.20 log2; Gene expression TMEM108 ([6]; 10 μM): 3.92 log2; Gene expression MOG ([7]; 10 μM): 5.23 log2; Gene expression OLIG2 ([8]; 10 μM): 6.16 log2; Gene expression MBP ([9]; 10 μM): 6.07 log2
COC[C@@H]1C[C@@H]2[C@H](CC[C@]3(C)C(O)CC[C@@H]23)c2ccc(O)cc21 (stereo partly drawn) [compound 4, (6R,8R,9S,13S,14S)-6-(methoxymethyl)-13-methyl-7,8,9,11,12,13,14,15,16,17-decahydro-6H-cyclopenta[a]phenanthrene-3,17-diol]	up-regulate	1.35	3.17	3.62	3.38	potent	5.16	3.59	3.99	4.98	4.72	Gene expression IL28A (Interleukin 28A (IL28A); 100 μM): 1.96 log2; Gene expression IL20RA ([2]; 100 μM): 3.38 log2; Gene expression IL23R ([3]; 100 μM): 4.86 log2; Gene expression Connexin AF251047 (Connexin (AF251047); 100 μM): 3.56 log2; Gene expression DNER ([5]; 100 μM): 5.51 log2; Gene expression TMEM108 ([6]; 100 μM): 3.62 log2; Gene expression MOG ([7]; 100 μM): 4.28 log2; Gene expression OLIG2 ([8]; 100 μM): 4.59 log2; Gene expression MBP ([9]; 100 μM): 4.80 log2
